Activity calls are given as the source filed them. The rule behind the calls is not given here.
These compounds were tested on Broad 7084-01 inhibitor HTS, set 2 (assay: single-concentration hits, screen 7084 set 2 (AID 977613);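 note: host cells are infected with parasite promastigotes that become internalized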).

SMILES | active concentration
CCS(=O)(=O)N1CC2(C1)[C@@H](c1ccccc1)[C@@H](CO)N2C(=O)c1ccccc1 | > 10 µM (inactive)
O=C(C[C@@H]1CC[C@H]2[C@@H](COC[C@H](O)CN2Cc2nccs2)O1)NCc1ccccc1 | > 10 µM (inactive)
COc1cccc(-c2ccccc2[C@H]2[C@@H](C#N)N(C(=O)c3ccccn3)[C@@H]2CO)c1 | > 10 µM (inactive)
COc1cccc(NC(=O)N2C[C@@H](O)COC[C@H]3O[C@H](CC(=O)NC4CCC4)CC[C@@H]32)c1 | > 10 µM (inactive)
CN1CCCCN2[C@H](CO)[C@H](c3ccc(-c4ccc(F)cc4)cc3)[C@@H]2C1 | > 10 µM (inactive)
COc1cccc(C#Cc2ccc([C@H]3[C@@H](CO)N4C(=O)CN(C(=O)Cc5cccnc5)C[C@H]34)cc2)c1 | > 10 µM (inactive)
CCCNC(=O)N1[C@H](C#N)[C@H](c2ccccc2C2=CCCCC2)[C@@H]1CO | > 10 µM (inactive)
COc1ccccc1CN1[C@H](CO)[C@@H]2c3ccccc3N(C(=O)c3cccnc3)C[C@@H]21 | > 10 µM (inactive)
O=C(c1cnccn1)N1CC(=O)N2[C@H](CO)[C@H](c3ccc(C#CC4CC4)cc3)[C@@H]2C1 | > 10 µM (inactive)
CCC(=O)N1[C@H](CO)[C@H](c2ccccc2)C12CN(C(=O)c1ccc3c(c1)OCO3)C2 | > 10 µM (inactive)
CCCNC(=O)N1CC(=O)N2[C@H](CO)[C@@H](c3ccc(C#CCC4CCCC4)cc3)[C@H]2C1 | > 10 µM (inactive)
O=C(C[C@H]1CC[C@@H]2[C@H](COC[C@@H](O)CN2S(=O)(=O)c2cccc(Cl)c2)O1)Nc1ccc(-c2ccccc2)cc1 | > 10 µM (inactive)
COc1ccc2c3c([nH]c2c1)[C@H](CO)N(C)CC31CCN(C(=O)c2ccccc2F)CC1 | > 10 µM (inactive)
CCS(=O)(=O)N1CC2(CN(Cc3cc(F)ccc3F)[C@H](CO)c3c2c2ccc(OC)cc2n3C)C1 | > 10 µM (inactive)
COc1cccc(-c2ccc3c(c2)[C@@H]2[C@@H](CCN2S(=O)(=O)c2cn(C)cn2)[C@@H](CO)N3)c1 | > 10 µM (inactive)
CC(C)NC(=O)N1[C@H](CO)[C@H](c2ccccc2-c2ccc(F)cc2)[C@@H]1C#N | > 10 µM (inactive)
O=C(C1CCOCC1)N1CC(=O)N2[C@H](C1)[C@@H](c1ccc(C#CCc3ccccc3)cc1)[C@@H]2CO | > 10 µM (inactive)
O=C(C[C@@H]1CC[C@@H]2NC[C@@H](O)COC[C@H]2O1)NCCN1CCCC1 | > 10 µM (inactive)

SMILES | active concentration
C/C=C/c1ccc([C@@H]2[C@H](CO)N(CC3CCOCC3)C23CN(S(=O)(=O)CC)C3)cc1 | > 10 µM (inactive)
Cc1cccc(S(=O)(=O)N2CC[C@@H]3[C@H]2c2cc(-c4ccccc4F)ccc2N(C)[C@H]3CO)c1 | > 10 µM (inactive)
Cc1nn(C)cc1NC(=O)C[C@@H]1CC[C@@H]2[C@H](COc3ccc(NC(=O)C4CCOCC4)cc3C(=O)N2C)O1 | > 10 µM (inactive)
CCCC(=O)N1CCC2(CC1)CN(Cc1ccc(Cl)cc1)[C@H](CO)c1[nH]c3cc(OC)ccc3c12 | > 10 µM (inactive)
O=C(c1cccnc1)N1C[C@H]2[C@@H](c3ccccc31)[C@H](CO)N2C(=O)CN1CCOCC1 | < 10 µM
Cc1ccccc1S(=O)(=O)N1CCCCN2[C@H](C1)[C@@H](c1ccc(C#CCN(C)C)cc1)[C@@H]2CO | > 10 µM (inactive)
C/C=C/c1ccc([C@@H]2[C@H](CO)N(CC3CC3)C23CN(C(=O)c2ccc4c(c2)OCO4)C3)cc1 | > 10 µM (inactive)
O=C(Nc1ccccc1)N1C[C@@H]2[C@H](c3ccccc31)[C@H](CO)N2Cc1ccccc1Cl | > 10 µM (inactive)
COc1cccc(NC(=O)N2CC(=O)N3[C@@H](CO)[C@H](c4ccc(C5=CCCCC5)cc4)[C@@H]3C2)c1 | > 10 µM (inactive)
CN(C)C(=O)C[C@@H]1CC[C@H]2[C@@H](COC[C@H](O)CN2C(=O)C2CC2)O1 | > 10 µM (inactive)
CC(C)C#Cc1ccc([C@@H]2[C@H](CO)N3C(=O)CN(C(=O)c4ccc5c(c4)OCO5)C[C@@H]23)cc1 | > 10 µM (inactive)
O=C(C[C@@H]1CC[C@H]2[C@@H](COC[C@H](O)CN2S(=O)(=O)c2ccccc2)O1)Nc1ccccc1 | > 10 µM (inactive)
CN1C(=O)c2cc(NC(=O)Cc3cccs3)ccc2OC[C@H]2O[C@H](CC(=O)N[C@@H]3CCN(Cc4ccccc4)C3)CC[C@@H]21 | > 10 µM (inactive)
COc1ccc(CN2[C@H](CO)[C@H]3c4ccccc4NC[C@H]32)cc1 | < 10 µM
CN1C[C@H]2[C@@H](c3ccccc31)[C@H](CO)N2Cc1ccccc1Cl | > 10 µM (inactive)
OC[C@@H]1[C@@H]2c3ccccc3NC[C@@H]2N1Cc1ccccc1Cl | > 10 µM (inactive)
O=C(O)[C@H]1[C@H](CO)[C@H]2Cn3c(ccc(-c4cncnc4)c3=O)[C@H]2N1C(=O)C1CCCCC1 | > 10 µM (inactive)
